Source: US12172919B2, “Deconstruction of oilsand materials using ionic liquids” (ADJACENCY LABS CORP., priority 2017, dated 2024)
Like-named read-outs stand apart in the source and are kept apart here.

Legend:
[1] = In-situ extraction: IL injection through column packed with oil sand; details: 100 g oil sand, 0.5 mL/min for 26 h, 24 h soak, 2 h re-injection
Experimental: 100 g dry oil sand was packed into a steel tube (1.5×30 cm). The packed steel tube then was mounted into apparatus to allow injection of desired fluid through the oil sand while collecting the effluent for subsequent analysis (FIG. 61). The injection of [C8NH3][Oleate] was continuous for 26 h at an injection rate of 0.5 mL/min, and the injection pressure was stabilized in the range 1940-2000 kPa. The breakthrough time was around 35 min. This indicates the pore volume was around 17.5 ml. The total amount of [C8NH3][Oleate] injected was around 783 ml. […] At the first 2.5 h of injection, the bitumen recovery is significant, and the fluid recovered is black. However, with continuing injection the black intensity decreases gradually till the effluent is clear [C8NH3][Oleate] after 26 h.
After 26 h of injection, the pump was stopped and the [C8NH3][Oleate]/Oil sand system in the steel column was left to soak for 24 h. Then injection was re-started with the same injection rate (0.5 mL/min) and the pressure stabilized at around 1850 kPa (similar level before soaking). The blackness of the fluid samples recovered during 2 h of injection post-soaking is not as intense as that during the same time for [C8NH3][Oleate] injection into the fresh oil sand. […]
After terminating the experiment, the bitumen still in the oil sand was quantified using Dean Stark.

[2] = Thermogravimetric analysis (TGA); format: physicochemical

## octylammonium oleate [[C8NH3][Oleate]]
[1]
  bitumen remaining in oil sand by Dean Stark extraction, of the initial amount of bitumen: 47.34%
[2]
  thermal decomposition temperature: 129 °C
solvent: Acetonitrile
  [C8NH3][Oleate] solubility: − (Insoluble (0.2 g in 3 mL solvent))
solvent: Chloroform
  [C8NH3][Oleate] solubility: + (Soluble (0.2 g in 0.5 mL solvent))
solvent: DI water
  [C8NH3][Oleate] solubility: − (Insoluble (0.2 g in 3 mL solvent))
solvent: Dichlorobenzene
  [C8NH3][Oleate] solubility: + (Soluble (0.2 g in 0.5 mL solvent))
solvent: Dichloromethane
  [C8NH3][Oleate] solubility: + (Soluble (0.2 g in 0.5 mL solvent))
solvent: Dimethyl sulfoxide
  [C8NH3][Oleate] solubility: − (Insoluble (0.2 g in 3 mL solvent))
solvent: Hexane
  [C8NH3][Oleate] solubility: + (Soluble (0.2 g in 0.5 mL solvent))
solvent: Methanol
  [C8NH3][Oleate] solubility: + (Soluble (0.2 g in 0.5 mL solvent))
solvent: Xylene
  [C8NH3][Oleate] solubility: + (Soluble (0.2 g in 0.5 mL solvent))
